pIC50: −log10 of the molar value. Several values for one entry are separate records, joined by “and”; a condition that tells them apart may be missing. Equal values may be shown once.
Tested on: 435261-313-R-J1-PDC tumor spheroid viability
Test: Anticancer human tumor 435261-313-R-J1-PDC patient-derived colon adenocarcinoma cell line growth inhibition [PI3K]
Settings: spheroids with HUVEC and MSC; for viability, T/C: stronger effect = lower value
Description: Combinatorial screen of targeted agents with the PI3K inhibitors inavolisib, alpelisib, duvelisib, and copanlisib in multi-cell type tumor spheroids
A high-throughput screen of multi-cell type tumor spheroids was designed to identify active combinations of targeted small molecules and PI3K pathway inhibitors. Complex spheroids include a stromal component modeled by human endothelial cells (HUVEC) and fibroblasts modeled by human mesenchymal stem cells (MSCs). The concentration ranges selected for each drug and investigational agent were based upon clinically achievable concentrations if the clinical Cmax of the agent was known.
Compounds. The drugs and investigational agents: inavolisib (NSC800729), alpelisib (NSC765974), duvelisib (NSC772469), copanlisib (NSC816437), ipatasertib (NSC767898), afuresertib (NSC778305), talazoparib (NSC767125), sapanisertib (NSC764658), selumetinib (NSC741078), tovorafenib (DAY101, NSC766906), vemurafenib (NSC761431), ravoxertinib (NSC781343), sotorasib (NSC818433), MRTX1133 (NSC 836407), abemaciclib (NSC 768073), palbociclib (NSC758247), venetoclax (NSC 766270), SY5609 (NSC837396), enzalutamide (NSC755605), and darolutamide (NSC825331), were obtained from the National Cancer Institute (NCI) Developmental Therapeutics Program Chemical Repository. The FDA-approved anticancer drug set is available from the NCI Developmental Therapeutics Program. […] The stock solutions were prepared in dimethyl sulfoxide (DMSO, Sigma-Aldrich, St. Louis, MO, cat. D2650) at 800-fold the tested concentration and stored at -70 degrees C prior to their use. All drugs and investigational agents were tested over a range starting from a high concentration at or near the clinical Cmax and decreasing in half-log increments. If the clinical Cmax for an agent had not been determined, the highest concentration tested was 10 microM.
Cell Culture. All cells were maintained in an incubator at 37 degrees C and 5% CO2 with 95% humidity. The PDC lines were cultured according to standard operating procedures established by the NCI PDMR (https://pdmr.cancer.gov/sops/default.htm). All PDCs were thawed and cultured in Matrigel-coated flasks prepared with a working solution of 1X Ham's F-12 nutrient mix, without supplementation (Invitrogen, Waltham, MA, cat. 11765054), 100 U/mL penicillin-streptomycin (Invitrogen, cat. 15140122), and 2.5% Matrigel (Corning Inc., Corning, NY, cat. 354248) for the first three passages. The 354836-022-R-J1-PDC, 475296-252-R-J1-PDC, and 997726-040-R-J2-PDC lines were cultured in 6A media, which includes advanced DMEM/F-12 (Thermo Fisher Scientific, cat. 12634028), 10 mM HEPES (Thermo Fisher Scientific, cat. 15630080), 1X GlutaMAX supplement (Thermo Fisher Scientific, cat. 35050061), 0.1 mg/mL primocin (InvivoGen, San Diego, CA, cat. ant-pm-2), 10% defined fetal bovine serum, heat inactivated (HyClone Laboratories Inc., Logan, UT, cat. SH30070.03HI), 50% L-WRN conditioned media (ATCC, cat. CRL-3276), 1.25 mM N-Acetyl-L-cysteine (Sigma-Aldrich, cat. A9165), 10 mM nicotinamide (Sigma-Aldrich, cat. N0636), 1X B-27 supplement (Thermo Fisher Scientific, cat. 17504044), 1X N-2 supplement (Thermo Fisher Scientific, cat. 17502048), and 10 microM Y-27632 dihydrochloride (Tocris Bioscience, Bristol, United Kingdom, cat. 1254). The 624824-186-R-J2-PDC line was cultured in 6C/Colon 1B media, which includes all 6A media components plus 50 ng/mL human EGF recombinant protein (Thermo Fisher Scientific, cat. PHG0311). […]

[1] = curve of first compound, second compound 0.0316 µM
[2] = curve of first compound, second compound 0.1 µM
[3] = curve of first compound, second compound 0.316 µM
[4] = curve of first compound, second compound 1 µM
[5] = curve of first compound, second compound 3.16 µM
[6] = curve of first compound, second compound 10 µM
[7] = second compound 0.0316 µM, first compound 0.0316 µM
[8] = second compound 0.0316 µM, first compound 0.1 µM
[9] = second compound 0.0316 µM, first compound 0.316 µM
[10] = second compound 0.0316 µM, first compound 1 µM
[11] = second compound 0.0316 µM, first compound 3.16 µM
[12] = second compound 0.0316 µM, first compound 10 µM
[13] = second compound 0.1 µM, first compound 0.0316 µM
[14] = second compound 0.1 µM, first compound 0.1 µM
[15] = second compound 0.1 µM, first compound 0.316 µM
[16] = second compound 0.1 µM, first compound 1 µM
[17] = second compound 0.1 µM, first compound 3.16 µM
[18] = second compound 0.1 µM, first compound 10 µM
[19] = second compound 0.316 µM, first compound 0.0316 µM
[20] = second compound 0.316 µM, first compound 0.1 µM
[21] = second compound 0.316 µM, first compound 0.316 µM
[22] = second compound 0.316 µM, first compound 1 µM
[23] = second compound 0.316 µM, first compound 3.16 µM
[24] = second compound 0.316 µM, first compound 10 µM
[25] = second compound 1 µM, first compound 0.0316 µM
[26] = second compound 1 µM, first compound 0.1 µM
[27] = second compound 1 µM, first compound 0.316 µM
[28] = second compound 1 µM, first compound 1 µM
[29] = second compound 1 µM, first compound 3.16 µM
[30] = second compound 1 µM, first compound 10 µM
[31] = second compound 3.16 µM, first compound 0.0316 µM
[32] = second compound 3.16 µM, first compound 0.1 µM
[33] = second compound 3.16 µM, first compound 0.316 µM
[34] = second compound 3.16 µM, first compound 1 µM
[35] = second compound 3.16 µM, first compound 3.16 µM
[36] = second compound 3.16 µM, first compound 10 µM
[37] = second compound 10 µM, first compound 0.0316 µM
[38] = second compound 10 µM, first compound 0.1 µM
[39] = second compound 10 µM, first compound 0.316 µM
[40] = second compound 10 µM, first compound 1 µM
[41] = second compound 10 µM, first compound 3.16 µM
[42] = second compound 10 µM, first compound 10 µM

Compound `CC(Cn1ccc(-c2ccc(C#N)c(Cl)c2)n1)NC(=O)c1cc(C(C)O)[nH]n1` (stereo unspecified) + Cc1nc(NC(=O)N2CCCC2C(N)=O)sc1-c1ccnc(C(C)(C)C(F)(F)F)c1 has a pIC50 [1] of less than 5.00, a pIC50 [2] of less than 5.00 and a pIC50 [3] greater than 7.50. It also gave a pIC50 [4] greater than 7.50, a pIC50 [5] greater than 7.50 and a pIC50 [6] greater than 7.50. The viability, T/C [7] was 107%, the viability, T/C [8] was 71.6% and the viability, T/C [9] was 83.6%. For the same compound, the viability, T/C [10] was 84.8%, the viability, T/C [11] was 101% and the viability, T/C [12] was 106%. For the same compound, the viability, T/C [13] was 68.3%, the viability, T/C [14] was 70.4% and the viability, T/C [15] was 71.3%. The viability, T/C [16] was 72.2%, the viability, T/C [17] was 66.3% and the viability, T/C [18] was 73.7%. The viability, T/C [19] was 37.6%, the viability, T/C [20] was 54.1% and the viability, T/C [21] was 37.3%. For the same compound, the viability, T/C [22] was 50.9%, the viability, T/C [23] was 63.7% and the viability, T/C [24] was 49.4%. It also gave a viability, T/C [25] of 24.6%, a viability, T/C [26] of 36.8% and a viability, T/C [27] of 36.3%. For the same compound, the viability, T/C [28] was 34.2%, the viability, T/C [29] was 38.6% and the viability, T/C [30] was 31.6%. The viability, T/C [31] was 17.4%, the viability, T/C [32] was 17.7% and the viability, T/C [33] was 15.4%. The viability, T/C [34] was 17.9%, the viability, T/C [35] was 18.8% and the viability, T/C [36] was 20.1%. For the same compound, the viability, T/C [37] was 9.77%, the viability, T/C [38] was 6.96% and the viability, T/C [39] was 8.76%. For the same compound, the viability, T/C [40] was 9.85%, the viability, T/C [41] was 10.7% and the viability, T/C [42] was 6%.
`C=CC(=O)N1CCN(c2nc(=O)n(-c3c(C)ccnc3C(C)C)c3nc(-c4c(O)cccc4F)c(F)cc23)C(C)C1` (stereo unspecified) was tested, and the viability, T/C (compound 0.0316 µM) was 92% [middle of 4 runs], the viability, T/C (compound 0.316 µM) was 109% [middle of 4 runs] and the viability, T/C (compound 3.16 µM) was 137% and 124% (2×) and 123%. The viability, T/C (compound 10 µM) was 109% [middle of 4 runs] and the pIC50 (curve of compound) was less than 5.00.
`C=CC(=O)N1CCN(c2nc(=O)n(-c3c(C)ccnc3C(C)C)c3nc(-c4c(O)cccc4F)c(F)cc23)C(C)C1` (stereo unspecified) + CC(Nc1ncnc2nc[nH]c12)c1cc2cccc(Cl)c2c(=O)n1-c1ccccc1 showed a pIC50 [1] of less than 5.00, a pIC50 [2] of less than 5.00 and a pIC50 [3] of less than 5.00. For the same compound, the pIC50 [4] was less than 5.00, the pIC50 [5] was less than 5.00 and the pIC50 [6] was less than 5.00. The viability, T/C [7] was 67.3%, the viability, T/C [8] was 84.8% and the viability, T/C [9] was 103%. The viability, T/C [10] was 117%, the viability, T/C [11] was 116% and the viability, T/C [12] was 103%. The viability, T/C [13] was 78.4%, the viability, T/C [14] was 79.9% and the viability, T/C [15] was 103%. The viability, T/C [16] was 84.3%, the viability, T/C [17] was 109% and the viability, T/C [18] was 103%. For the same compound, the viability, T/C [19] was 92%, the viability, T/C [20] was 95% and the viability, T/C [21] was 85.4%. The viability, T/C [22] was 94.1%, the viability, T/C [23] was 122% and the viability, T/C [24] was 108%. The viability, T/C [25] was 76.3%, the viability, T/C [26] was 77% and the viability, T/C [27] was 102%. For the same compound, the viability, T/C [28] was 91.9%, the viability, T/C [29] was 130% and the viability, T/C [30] was 109%. The viability, T/C [31] was 53.7%, the viability, T/C [32] was 68.8% and the viability, T/C [33] was 89.2%. The viability, T/C [34] was 106%, the viability, T/C [35] was 87.9% and the viability, T/C [36] was 79.5%. It also gave a viability, T/C [37] of 49.3%, a viability, T/C [38] of 49.6% and a viability, T/C [39] of 54.6%. The viability, T/C [40] was 55.1%, the viability, T/C [41] was 74.9% and the viability, T/C [42] was 66.4%.
`CC(Nc1ncnc2nc[nH]c12)c1cc2cccc(Cl)c2c(=O)n1-c1ccccc1` (stereo unspecified) was tested, and the viability, T/C (compound 1 µM) was 77.1% [middle of 7 runs] and the viability, T/C (compound 3.16 µM) was 70.9% [middle of 7 runs].

Reference: PubChem BioAssay AID1963976 (Molecular Pharmacology Branch, DTP, NCI, 2024)
